Patent publication US20110045520A1, “FATTY ACID MARKERS FOR THE DIAGNOSIS, PROGNOSIS AND MANAGEMENT OF CARDIOVASCULAR DISEASE” (priority 2007, published 2011)

Target: T1, human serum albumin (HSA) in pooled normal serum (Homo sapiens, UniProt P02768)
T1 construct: from tissue; host or cells: pooled normal human serum
Assay: Cobalt binding assay, HSA in pooled normal serum incubated with individual unesterified fatty acids
Details: fatty acid:HSA molar ratios of about 8; most apparent with HSA in pooled normal serum
Procedure: The concentrations of twelve unesterified fatty acids were measured in vitro to determine if differences in individual fatty acid levels affect Co(II)—albumin interactions in the cobalt binding assay. The effect of individual fatty acid concentrations on HSA was evaluated in the presence of HSA from two different sources: (1) purified commercial HSA with defined buffer conditions, and (2) USA in pooled normal serum. The cobalt binding assays were performed after incubation of HSA with each unesterified fatty acid for 12 hours at room temperature. The concentrations of the individual FFAs were determined by measuring total FFAs levels before and after the addition of the specific FFAs to pooled normal serum. HSA concentrations were measured by standard colorimetric protein assays. Molar ratios were calculated from the concentration values determined for the individual specific FFAs with respect to the concentrations of HSA measured in each sample.

T1 sequence (P02768 25-609): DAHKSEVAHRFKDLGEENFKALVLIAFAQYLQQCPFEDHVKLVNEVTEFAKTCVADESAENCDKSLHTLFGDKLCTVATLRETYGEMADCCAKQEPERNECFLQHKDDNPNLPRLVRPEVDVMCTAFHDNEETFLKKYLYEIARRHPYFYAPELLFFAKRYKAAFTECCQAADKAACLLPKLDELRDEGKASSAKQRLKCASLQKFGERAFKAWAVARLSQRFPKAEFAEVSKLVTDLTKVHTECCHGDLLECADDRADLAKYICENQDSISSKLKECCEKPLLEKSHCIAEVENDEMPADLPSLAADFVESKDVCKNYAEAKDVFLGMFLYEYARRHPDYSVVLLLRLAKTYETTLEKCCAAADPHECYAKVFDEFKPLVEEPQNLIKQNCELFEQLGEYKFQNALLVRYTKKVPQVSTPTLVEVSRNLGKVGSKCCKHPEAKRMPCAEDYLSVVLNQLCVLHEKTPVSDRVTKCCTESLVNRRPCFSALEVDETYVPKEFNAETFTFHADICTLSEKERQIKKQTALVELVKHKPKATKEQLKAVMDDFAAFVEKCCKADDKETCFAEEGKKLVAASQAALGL

Structure (SMILES)	effect on the percent reduction of the Co[II]-HSA binding assay
CCCCCCCC/C=C\CCCCCCCC(=O)O [Oleic acid]	significant effect
CCCCC/C=C\C/C=C\C/C=C\C/C=C\CCCC(=O)O [Arachidonic acid]	significant effect
